The values below come from US11084824B2, “Pyrazolopyrimidine derivatives, preparation method thereof, and pharmaceutical composition for use in preventing or treating cancer, autoimmune disease and brain disease containing the same as an active ingredient” (Korea Research Institute of Chemical Technology, priority 2017, dated 2021).

The target of test [1] is Bruton's tyrosine kinase (BTK) (Homo sapiens (Human), UniProt Q06187). Description: BTK enzyme inhibition assay (Cisbio HTRF kit). Type of test: biochemical. The settings on record: 30 minutes reaction, fluorescence 665 nm/620 nm. How it is done: BTK enzyme evaluation with each compound of examples of the invention was performed by using BTK enzyme inhibition diagnosis kit (Cisbio, Codolet, France). […] Then, EDTA (ethylenediaminetetraacetic acid) was added thereto in order to terminate the reaction. At this time, the EDTA solution contained curopium-containing antibody (antiphosphoresidue antibody) and straptavidin-XL665 (SA-XL665, Cisbio). After incubation for 1 hour, fluorescence was measured. The emission values of 665 nm and 620 nm excited at 337 nm were measured with Envision reader. IC50 values were determined using GraphPad prism (version 5). Herein, the curve indicates a nonlinear regression model, which was determined by logarithmic functions and reaction values.
Chain of Bruton's tyrosine kinase (BTK) (Q06187 whole entry): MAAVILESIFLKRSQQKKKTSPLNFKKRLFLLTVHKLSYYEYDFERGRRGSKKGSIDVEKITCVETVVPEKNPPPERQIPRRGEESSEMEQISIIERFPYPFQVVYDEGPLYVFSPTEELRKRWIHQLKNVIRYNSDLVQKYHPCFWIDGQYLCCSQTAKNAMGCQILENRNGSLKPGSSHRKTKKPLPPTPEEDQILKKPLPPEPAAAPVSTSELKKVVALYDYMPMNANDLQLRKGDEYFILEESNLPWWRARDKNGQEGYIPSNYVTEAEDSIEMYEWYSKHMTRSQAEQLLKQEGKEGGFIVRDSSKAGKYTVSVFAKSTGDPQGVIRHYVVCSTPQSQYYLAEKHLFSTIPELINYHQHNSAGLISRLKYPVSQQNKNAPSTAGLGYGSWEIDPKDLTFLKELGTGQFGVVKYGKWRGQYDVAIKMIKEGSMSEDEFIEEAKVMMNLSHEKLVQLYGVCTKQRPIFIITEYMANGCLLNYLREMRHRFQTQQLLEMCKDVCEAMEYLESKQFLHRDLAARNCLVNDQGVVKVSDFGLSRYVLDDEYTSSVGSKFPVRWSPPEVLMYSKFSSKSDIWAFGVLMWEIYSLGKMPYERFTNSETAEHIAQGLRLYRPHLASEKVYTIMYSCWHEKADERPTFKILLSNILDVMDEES

Test [2] deals with TMD8 cells. Description: TMD8 cell growth inhibition (WST-1, 72 hours). The settings on record: Homo sapiens, TMD8 ABC type DLBCL cell line, WST-1, absorbance 450 nm. Type of test: cell-based. Here is the method: TDM-8 cells, the ABC (activated B-cell) type DLBCL (diffuse large B cell lymphoma) cell line sensitive to BTK signaling, were seeded in a 96-well plate at 30% confluency. Then, the compounds of the invention were treated thereto at different concentrations. 72 hours later, WST-1 reagent was added thereto. One hour later, absorbance was measured at 450 nm by using a spectramax spectrophotometer.

Counter-ions that a name gives are not always drawn.

`COc1cc(C)c(Nc2nn(C)c3nc(Nc4ccc5c(c4)CNCC5)ncc23)c(C)c1` [Example 35, N^3-(4-methoxy-2,6-dimethylphenyl)-1-methyl-N^6-(1,2,3,4-tetrahydroisoquinoline-7-yl)-1H-pyrazolo[3,4-d]pyrimidine-3,6-diamine]: the IC50 in test [1] was 3 nM; in test [2] it was 99.3 nM.

As to `Cc1cccc(C)c1Nc1nn(C2CCCCC2)c2nc(Nc3ccc4c(c3)CNCC4)ncc12` [Example 26, 1-cyclohexyl-N^3-(2,6-dimethylphenyl)-N^6 (1,2,3,4-tetrahydroisoquinoline-7-yl)-1H-pyrazolo[3,4-d]pyrimidine-3,6-diamine], the IC50 in test [1] was 2 nM; in test [2], 64.9 nM.

Take `Cc1cccc(C)c1Nc1nn(C)c2nc(Nc3ccc4c(c3)CN(C)CC4)ncc12` [Example 17, N^3-(2,6-dimethylphenyl)-1-methyl-N^6-(2-methyl-1,2,3,4-tetrahydroisoquinoline-7-yl)-1H-pyrazolo[3,4-d]pyrimidine-3,6-diamine]: the values for the IC50 in test [1] and in test [2] were 1.2 nM and 36 nM, respectively.

Take `Cc1cccc(C)c1Nc1nn(C)c2nc(Nc3ccc4c(c3)CN(C(=O)CO)CC4)ncc12` [Example 22, 1-(7-(3-(2,6-dimethylphenylamino)-1-methyl-1H-pyrazolo[3,4-d]pyrimidine-6-ylamino)-3,4-dihydroisoquinoline-2(1H)-yl)-2-hydroxyethanone]: the figures for the IC50 in test [1] and in test [2] were 0.4 nM and 46.4 nM, respectively.

Consider `Cc1cccc(C)c1Nc1nn(C)c2nc(Nc3ccc4c(c3)C(C)(C)NCC4)ncc12` [Example 58, N6-(1,1-dimethyl-1,2,3,4-tetrahydroisoquinolin-7-yl)-N 3-(2,6-dimethylphenyl)-1-methyl-1H-pyrazolo[3,4-d]pyrimidine-3,6-diamine], for which the results for the IC50 in test [1] and in test [2] were 1.69 nM and 8.77 nM, respectively.

Consider `Cc1ccc(Nc2nn(C)c3nc(Nc4ccc5c(c4)CNCC5)ncc23)c(C)c1` [Example 39, N^3-(2,4-dimethylphenyl)-1-methyl-N^6 (1,2,3,4-tetrahydroisoquinoline-7-yl)-1H-pyrazolo[3,4-d]pyrimidine-3,6-diamine], for which the IC50 in test [1] was determined as 2.8 nM; in test [2] it was 292 nM.

For the molecule `Cc1cc(F)cc(C)c1Nc1nn(C)c2nc(Nc3ccc4c(c3)CNCC4)ncc12` [Example 44, N^3-(4-fluoro-2,6-dimethylphenyl)-1-methyl-N^6-(1,2,3,4-tetrahydroisoquinoline-7-yl)-1H-pyrazolo[3,4-d]pyrimidine-3,6-diamine], the IC50 in test [1] was found to be 1.7 nM; in test [2], 69 nM.

Regarding `Cc1cccc(C)c1Nc1nn(C)c2nc(Nc3ccc4c(c3)CN(C(=O)CN(C)C)CC4)ncc12` [Example 31, 2-(dimethylamino)-1-(7-(3-(2,6-dimethylphenylamino)-1-methyl-1H-pyrazolo[3,4-d]pyrimidine-6-ylamino)-3,4-dihydroisoquinolin-2(1H)-yl)ethanone], the IC50 was determined as 0.8 nM in test [1] and 64.2 nM in test [2].

With `Cc1cc(Oc2ccccc2)cc(C)c1Nc1nn(C)c2nc(Nc3ccc4c(c3)CNCC4)ncc12` [Example 33, N-(2,6-dimethyl-4-phenoxyphenyl)-1-methyl-N^6 (1,2,3,4-tetrahydroisoquinoline-7-yl)-1H-pyrazolo[3,4-d]pyrimidine-3,6-diamine], the IC50 in test [1] was found to be 5 nM; in test [2] it was 669 nM.

As to `Cc1cc(C(=O)Nc2ccccn2)cc(C)c1Nc1nn(C)c2nc(Nc3ccc4c(c3)CNCC4)ncc12` [Example 34, 3,5-dimethyl-4-(1-methyl-6-(1,2,3,4-tetrahydroisoquinoline-7-ylamino)-1H-pyrazolo[3,4-d]pyrimidine-3-ylamino)-N-(pyridine-2-yl)benzamide], the IC50 in test [1] is 15 nM; in test [2] it was 178 nM.

As to `Cc1ccc(NC(=O)c2cccc(C(F)(F)F)c2)cc1Nc1nn(C)c2nc(Nc3ccc4c(c3)CNCC4)ncc12` [Example 28, N-(4-methyl-3-((1-methyl-6-((1,2,3,4-tetrahydroisoquinoline-7-yl)amino)-1H-pyrazolo[3,4-d]pyrimidine-3-yl)amino)phenyl)-3-(trifluoromethyl)benzamide], the IC50 worked out at 3 nM in test [1] and 17.9 nM in test [2].

`Cc1ccc(NC(=O)c2cccc(C(F)(F)F)c2)c(C)c1Nc1nn(C)c2nc(Nc3ccc4c(c3)CNCC4)ncc12` [Example 29, N-(2,4-dimethyl-3-(1-methyl-6-(1,2,3,4-tetrahydroisoquinoline-7-ylamino)-1H-pyrazolo[3,4-d]pyrimidine-3-ylamino)phenyl)-3-(trifluoromethyl)benzamide]: the IC50 in test [1] came out at 8 nM; in test [2] it was 117 nM.

Regarding `Cc1cccc(C)c1Nc1nn(C)c2nc(Nc3ccc4c(c3)C(C(C)C)NCC4)ncc12` (centres unmarked) [Example 49, N^3-(2,6-dimethylphenyl)-N^6-(1-isopropyl-1,2,3,4-tetrahydroisoquinoline-7-yl)-1-methyl-1H-pyrazolo[3,4-d]pyrimidine-3,6-diamine], the IC50 in test [1] is 1.61 nM; in test [2], 19.6 nM.

As to `CC(=O)N1CCc2ccc(Nc3ncc4c(Nc5c(C)cccc5C)nn(C)c4n3)cc2C1(C)C` [Example 60, 1-(7-((3-((2,6-dimethylphenyl)amino)-1-methyl-1H-pyrazolo[3,4-d]pyrimidine-6-yl)amino)-1,1-dimethyl-3,4-dihydroisoquinoline-2(1H)-yl)ethane-1-one], the results for the IC50 in test [1] and in test [2] were 4.01 nM and 159 nM, respectively.

For the molecule `Cc1ccc(NC(=O)c2cccc(C(F)(F)F)c2)cc1Nc1nn(C)c2nc(Nc3ccc4c(c3)C(C)NCC4)ncc12` (centres unmarked) [Example 47, N-(4-methyl-3-(1-methyl-6-(1-methyl-1,2,3,4-tetrahydroisoquinoline-7-ylamino)-1H-pyrazolo[3,4-d]pyrimidine-3-ylamino)phenyl)-3-(trifluoromethyl)benzamide], the IC50 was found to be 5.42 nM in test [1] and 13.8 nM in test [2].

In the case of `Cc1cccc(C)c1Nc1nn(C)c2nc(Nc3ccc4c(c3)COCC4)ncc12` [Example 18, N^3(2,6-dimethylphenyl)-N^6 (isochroman-7-yl)-1-methyl-1H-pyrazolo[3,4-d]pyrimidine-3,6-diamine], the IC50 is 0.5 nM in test [1] and 134 nM in test [2].

Regarding `Cc1cccc(C)c1Nc1nn(C)c2nc(Nc3ccc4c(c3)C(C)NCC4)ncc12` (centres unmarked) [Example 20, N^3-(2,6-dimethylphenyl)-1-methyl-N^6-(1-methyl-1,2,3,4-tetrahydroisoquinoline-7-yl)-1H-pyrazolo[3,4-d]pyrimidine-3,6-diamine], the IC50 in test [1] turned out to be 0.5 nM; in test [2] it was 8.28 nM.

In the case of `CCN1CCc2ccc(Nc3ncc4c(Nc5c(C)cccc5C)nn(C)c4n3)cc2C1` [Example 32, N3-(2,6-dimethylphenyl)-N^6-(2-ethyl-1,2,3,4-tetrahydroisoquinoline-7-yl)-1-methyl-1H-pyrazolo[3,4-d]pyrimidine-3,6-diamine], the IC50 in test [1] was 0.7 nM; in test [2], 37.9 nM.

With `Cc1cccc(C)c1Nc1nn(C2CCCC2)c2nc(Nc3ccc4c(c3)CNCC4)ncc12` [Example 25, 1-cyclopentyl-N^3-(2,6-dimethylphenyl)-N^6-(1,2,3,4-tetrahydroisoquinoline-7-yl)-1H-pyrazolo[3,4-d]pyrimidine-3,6-diamine], the values for the half-maximal inhibitory concentration (IC50) in test [1] and in test [2] were 0.3 nM and 90.3 nM, respectively.

Regarding `Cc1cccc(C)c1Nc1nn(C)c2nc(Nc3ccc4c(c3)CN(C)CC4(C)C)ncc12` [Example 63, N3-(2,6-dimethylphenyl)-1-methyl-N 6-(2,4,4-trimethyl-1,2,3,4-tetrahydroisoquinoline-7-yl)-1H-pyrazolo[3,4-d]pyrimidine-3,6-diamine], the IC50 in test [1] was 2.13 nM; in test [2], 20.9 nM.

For `Cc1cccc(C)c1Nc1nn(C)c2nc(Nc3ccc4c(c3)CNC4)ncc12` [Example 56, N^3-(2,6-dimethylphenyl)-N^6-(isoindolin-5-yl)-1-methyl-1H-pyrazolo[3,4-d]pyrimidine-3,6-diamine hydrochloride], the IC50 in test [1] was found to be 0.745 nM; in test [2], 58.9 nM.

With `Cc1cccc(C)c1Nc1nn(C)c2nc(Nc3ccc4c(c3)C(C)N(C)CC4)ncc12` (centres unmarked) [Example 62, N6-(1,2-dimethyl-1,2,3,4-tetrahydroisoquinoline-7-yl)-N 3-(2,6-dimethylphenyl)-1-methyl-1H-pyrazolo[3,4-d]pyrimidine-3,6-diamine], the IC50 turned out to be 1.21 nM in test [1] and 27.9 nM in test [2].

On to `Cc1cccc(C)c1Nc1nn(C)c2nc(Nc3ccc4c(c3)C(C(C)C)N(C)CC4)ncc12` (centres unmarked) [Example 65, N3-(2,6-dimethylphenyl)-N 6-(1-isopropyl-2-methyl-1,2,3,4-tetrahydroisoquinoline-7-yl)-1-methyl-1H-pyrazolo[3,4-d]pyrimidine-3,6-diamine], for which the values for the IC50 in test [1] and in test [2] were 7.74 nM and 274 nM, respectively.

Take `CCc1cccc(CC)c1Nc1nn(C)c2nc(Nc3ccc4c(c3)CNCC4)ncc12` [Example 36, N^3-(2,6-diethylphenyl)-1-methyl-N^6-(1,2,3,4-tetrahydroisoquinoline-7-yl)-1H-pyrazolo[3,4-d]pyrimidine-3,6-diamine]: the IC50 was found to be 44 nM in test [1] and 968 nM in test [2].

Take `Cn1nc(Nc2c(Cl)cccc2Cl)c2cnc(Nc3ccc4c(c3)CN(C(=O)C(F)(F)F)CC4)nc21` [Example 11, 1-(7-(3-(2,6-dichlorophenylamino)-1-methyl-1H-pyrazolo[3,4-d]pyrimidine-6-ylamino)-3,4-dihydroisoquinoline-2(1H)-yl)-2,2,2-trifluoroethaneone]: the IC50 in test [1] is 386 nM; in test [2], 243 nM.
